# Tests used:
# [1] = test system: JNK1; assay: JNK1 activation under ER stress; assay type: cell-based, human; conditions: 2.5 μM, 2 hour preincubation, Tm 4 μg/ml 1.5 hrs
# Experimental: HT1080 cells were exposed to DMSO vehicle (lane 1), irestatin 9389 (2.5 μM; lane 2) for 16 hours or Tm (5 μg/ml; lane 3) for 8 hours. Following treatments, cells were harvested, lysed, and analyzed by immunoblotting using anti-Grp78 antibody (top) or anti-actin (bottom) as a loading control. B. Effect of irestatin 9389 on IRE1α expression and kinase function. HT1080 cells were preincubated for 16 hours with either vehicle or irestatin 9389 (2.5 μM), followed by addition of Tm (5 μg/ml) for the indicated times. Cell lysates were analyzed by Western immunoblotting using anti-IRE1α (bottom) or anti-phospho-IRE1α antibodies (top). C. Effect of irestatins on JNK1 activation under ER stress. HT1080 cells were untreated (lane 1), exposed to TNF-α (10 ng/ml, 10 min), or Tm (4 μg/ml, 1.5 hrs) (lanes 3-8) following a 2 hour preincubation in the presence of vehicle (lane 3) or the indicated irestatins (2.5 μM; lanes 4-8). Lysates were analyzed by Western blot using antisera specific for phospho-JNK1 (top) or total JNK1 (bottom). […] F. Quantification of RNA cleavage kinetics. […] Samples were analyzed as in (E).
# Activation of IRE1α is preceded by ATP binding and autophosphorylation, and the IRE1α kinase is required for endonuclease activity. […] Cells were then harvested at regular intervals, and activation of the IRE1α kinase was assessed by immunoblotting using anti-phospho-IRE1α antisera.
# [2] = test system: XBP-luciferase reporter; assay: In vivo bioluminescence imaging of XBP-luciferase tumor xenografts; design: species or system mouse
# Experimental: HT1080 fibrosarcoma cells (2×10^6) stably expressing the XBP-luciferase reporter were implanted s.c. into severe combined immune deficient (SCID) mice. Ten minutes prior to imaging, mice were injected i.p. with D-luciferin (150 mg/kg) solubilized in PBS. Optical bioluminescence imaging was performed using the IVIS charged-coupled device camera system (Caliper Life Sciences, Hopkinton, Mass.). Mice were imaged for 1-4 minutes per acquisition scan. Signal intensities were analyzed using Living Image software (Caliper).
# A. Irestatin 9389 impairs IREla activity in implanted tumor xenografts. Equal numbers (2×10^6) of XBP-luciferase or CMV-luciferase reporter cells were implanted s.c. into SCID mice. After one week, mice were treated with irestatin 9389 (50 mg/kg), followed by optical bioluminescence imaging. B. Inhibition of tumor growth by irestatin 9389. […] Tumor volumes were calculated based on caliper measurements taken every 3-5 days. Data points represent the mean volume calculated from at least 7 tumors per group, with SEM shown in one direction. […]
# The increased sensitivity of irestatin-treated cells to hypoxic stress in vitro indicate that selective inhibition of IRE1α signaling could impact tumor growth. […] In contrast, XBP-1s was not detected in normal pancreas specimens (0/20), and infrequently observed in chronic pancreatitis (1/29) (FIG. 15). […]
# [3] = test system: HT1080 s.c. tumor xenografts; assay type: in vivo; conditions: 50 mg/kg i.p. every other day, 6 doses
# Experimental: Female 4-6 week-old SCID (B6.CB17) mice supplied by Stanford University Animal Facility were housed in the same facility (American Association of Laboratory Animal Care-approved) with 12 hour light cycles. Food and water were provided ad libitum. All experiments were approved by the institutional care and use committee. The potential toxicities of irestatin 9389 were examined in SCID mice injected i.p. once daily over 4 consecutive days with increasing doses of irestatin 9389 or vehicle control. […] For xenografts, 2×10^6 HT1080 fibrosarcoma cells were resuspended in 50-75 μl PBS and injected s.c. in the dorsal flanks of host mice. When the implanted tumors reached a mean volume of ˜150 mm^3, mice were randomly assigned into different treatment groups. Mice were dosed by i.p. bolus injection with either vehicle (50% DMSO, 20% cremophor EL, 30% ethanol) or irestatin 9389 (50 mg/kg). Tumors (6-8 per group) were measured every 2-4 days with calipers. Tumor volume was calculated using the formula [(W^2×L) 0.52] where W=width and L=length.
# A. Irestatin 9389 impairs IREla activity in implanted tumor xenografts. […] Tumor volumes were calculated based on caliper measurements taken every 3-5 days. Data points represent the mean volume calculated from at least 7 tumors per group, with SEM shown in one direction. […]
smiles,measurement,setting,value
Cc1csc(NC(=O)CSc2nc3c(c(C(F)(F)F)c2C#N)CCC3)n1 [Compound 9389],phosphorylation of JNK1 during Tm-induced ER stress,[1],failed to block the phosphorylation of JNK1
same,duration of robust inhibition of the XBP-luciferase reporter after injection,"[2]; SCID mice, single doses of 50-60 mg/kg",6 to 8 h
same,time at which XBP-luciferase signal returned to basal levels,[2]; after treatment,≤ 24 h
same,antitumor effect,[3],significant cytostatic antitumor effects
